Here are results for one compound from publication PMC11124362, “Metabolism, Disposition, Excretion, and Potential Transporter Inhibition of 7–16, an Improving 5-HT2A Receptor Antagonist and Inverse Agonist for Parkinson’s Disease” (Molecules, 2024).

Each structure is given as a SMILES string. pIC50: −log10 of the molar value.

Data set [1] concerns CYP2C9. Also noted: method as in PMID 35279606. The conditions noted are these: previous study; read-out: CYP2C9 inhibition IC50; cited from earlier work.
Data set [2] addresses T1, OAT3 (Homo sapiens, UniProt Q8TCC7).
T1 sequence (Q8TCC7 1-542): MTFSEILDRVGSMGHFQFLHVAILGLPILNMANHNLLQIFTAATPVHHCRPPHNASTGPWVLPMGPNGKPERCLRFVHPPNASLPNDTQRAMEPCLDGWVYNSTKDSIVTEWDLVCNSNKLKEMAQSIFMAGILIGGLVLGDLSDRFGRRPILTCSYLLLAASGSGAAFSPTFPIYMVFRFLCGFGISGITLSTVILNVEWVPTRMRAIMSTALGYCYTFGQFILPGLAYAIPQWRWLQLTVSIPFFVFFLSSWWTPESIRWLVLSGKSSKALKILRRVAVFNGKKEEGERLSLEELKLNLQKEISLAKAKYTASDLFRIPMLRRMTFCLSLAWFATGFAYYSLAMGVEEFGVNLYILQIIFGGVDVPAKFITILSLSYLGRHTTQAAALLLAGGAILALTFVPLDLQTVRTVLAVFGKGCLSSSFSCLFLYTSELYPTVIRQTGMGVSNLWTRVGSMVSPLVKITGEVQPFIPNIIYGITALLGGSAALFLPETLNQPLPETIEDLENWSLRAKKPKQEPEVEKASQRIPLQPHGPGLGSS

The target in data set [3] is T2, OAT1 (Homo sapiens, UniProt Q4U2R8).
T2 construct: host or cells: HEK293
T2 sequence (Q4U2R8 1-563): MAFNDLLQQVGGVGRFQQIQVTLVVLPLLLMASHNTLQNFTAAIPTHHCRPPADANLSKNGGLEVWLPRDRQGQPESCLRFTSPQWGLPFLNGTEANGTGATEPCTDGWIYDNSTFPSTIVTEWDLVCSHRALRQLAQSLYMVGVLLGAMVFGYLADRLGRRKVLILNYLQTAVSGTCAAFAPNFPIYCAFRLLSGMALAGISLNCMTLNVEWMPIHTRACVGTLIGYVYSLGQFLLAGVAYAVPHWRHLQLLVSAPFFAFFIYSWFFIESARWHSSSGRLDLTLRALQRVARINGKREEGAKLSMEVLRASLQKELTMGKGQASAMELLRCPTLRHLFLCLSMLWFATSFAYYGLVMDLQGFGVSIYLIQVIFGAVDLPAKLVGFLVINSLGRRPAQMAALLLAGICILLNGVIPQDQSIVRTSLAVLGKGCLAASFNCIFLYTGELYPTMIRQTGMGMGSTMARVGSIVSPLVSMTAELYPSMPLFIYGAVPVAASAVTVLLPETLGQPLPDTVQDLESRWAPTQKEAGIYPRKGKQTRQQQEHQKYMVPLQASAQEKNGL
The data set is described as follows: OAT1 inhibitor assay in HEK293 cells. Type of data set: in vitro ADME. As to conditions: substrate p-Aminohippurate, read-out: Inhibition IC50, OAT1.

In data set [4] the test system is hERG. Set-up: method as in PMID 35279606. The conditions noted are these: versus pimavanserin; cited from earlier work.
Data set [5] is described as follows: Metabolite identification in monkey liver microsomes. As to conditions: 7–16 10 µM, liver microsomes 1 mg/mL, NADPH, 37 °C, 60 min. The format is in vitro ADME. The protocol:
In accordance with our previous methods, 7–16 (10 µM) was incubated with mouse, rat, dog, monkey, and human liver microsome proteins (1 mg/mL) in 100 mM sodium phosphate buffer (pH 7.4) containing 10 mM magnesium chloride and 2 mM NADPH at 37 °C for 60 min. All samples were prepared in duplicates. The reactions were terminated by adding three times the volume of ice-cold acetonitrile (600 µL) and stored at −20 °C until analysis. Control samples without NADPH and 0-time point samples were included. As a positive control, testosterone (10 µM), which was metabolized to produce the hydroxylation metabolite, was used as a substrate to confirm the activity of the incubation system.
After pre-treatments, the samples were analyzed by an Acquity UPLC system coupled with a diode array detector (Waters Corporation, Milford, MA, USA) and Q Exactive HRMS (Thermo Electron Corporation, Waltham, MA, USA) (UPLC–UV-Q Exactive HRMS). Samples were separated on an Agilent XDB C18 column (150 × 2.1 mm i.d. 3.5 μm, Agilent Corporation, Santa Clara, CA, USA) at 40 °C by gradient elution with water and acetonitrile containing 0.1% formic acid. The flow rate was 0.40 mL/min. The ultraviolet (UV) detection wavelength was 286 nm. Q Exactive HRMS were operated at positive ion mode (3.5 kV) using a heating electrospray ionization source. Mass calibration was required to be performed before conducting experiments so as to achieve the best mass accuracy and mass calibration should be performed every five days. The metabolites were detected by full MS/dd-MS^2 analysis from m/z 100 to m/z 1000. The resolution of the first-class scan and second-class scan was 70,000 and 17,500, respectively. Thermo Compound Discover software was used to identify expected and unknown metabolites, and we finally proposed the 7–16 metabolic pathways based on the deduced metabolites and relevant drug biotransformation knowledge.
Background: Liver microsomes are a subcellular fraction often used to study metabolism.

For data set [6], the target named is T3, OCT2 (Homo sapiens, UniProt O15244).
T3 sequence (O15244 1-555): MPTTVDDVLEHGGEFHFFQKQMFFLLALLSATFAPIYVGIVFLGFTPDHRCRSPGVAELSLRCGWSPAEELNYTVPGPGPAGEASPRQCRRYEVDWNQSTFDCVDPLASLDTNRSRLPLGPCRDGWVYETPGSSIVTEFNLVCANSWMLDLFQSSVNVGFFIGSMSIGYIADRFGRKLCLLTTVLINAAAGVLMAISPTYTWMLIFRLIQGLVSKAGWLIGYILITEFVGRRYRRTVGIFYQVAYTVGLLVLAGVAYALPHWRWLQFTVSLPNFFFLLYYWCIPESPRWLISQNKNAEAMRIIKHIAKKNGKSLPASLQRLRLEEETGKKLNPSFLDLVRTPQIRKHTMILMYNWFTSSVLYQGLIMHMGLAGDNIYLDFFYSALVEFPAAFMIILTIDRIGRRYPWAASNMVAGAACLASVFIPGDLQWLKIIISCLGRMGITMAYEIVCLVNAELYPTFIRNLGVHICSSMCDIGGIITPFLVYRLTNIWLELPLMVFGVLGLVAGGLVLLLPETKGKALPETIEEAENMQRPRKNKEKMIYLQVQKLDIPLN

As to `CN1CCC(N(Cc2ccc(F)cn2)C(=O)NCc2ccc(OCC(F)(F)F)cc2)CC1` [7–16, 3-(4-(2,2,2-trifluoroethoxy)benzyl)-1-((5-fluoropyridin-2-yl)methyl)-1-(1-methylpiperidin-4-yl) urea], the negative-log IC50 (pIC50) in data set [1] is less than 4.20; in data set [2], less than 4.00; in data set [3], less than 4.00; in data set [6], 4.14. Also, the “fold weaker hERG inhibitory activity than pimavanserin” value in data set [4] is on record as 2 fold. For the same compound, the “Relative Abundance, UV Area% Monkey” value in data set [5] is 90.6%.

The pIC50 is −log10 of the IC50, conventionally taken in molar units.
